The source of these data is patent US11834450B2, “Compounds having ((3-nitrophenyl)sulfonyl)acetamide as BCL-2 inhibitors” (Eil Therapeutics, Inc., priority 2021, dated 2023).

In series [1] the test system is RS4-11 cells. Put plainly: Cell viability assay RS4-11 (CellTiter-Glo). Format: cell-based. The conditions noted are these: Homo sapiens, read-out: RS4-11 (CC50 code). The gist of the method: (§1)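 Cells were seeded at 2000/well (HEK293, in DMEM, pre-incubated a day) or 4000/well (other lines, in RPMI-1640). Serially diluted compound was added and plates incubated 3 days at 37 °C, with viability read by CellTiter-Glo luminescence.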
(In general: In ATP-based viability assays light output follows the ATP content of the culture.)

For series [2], the system named is MOLT-4 cells. Put plainly: Cell viability assay MOLT-4 (CellTiter-Glo). Format: cell-based. The conditions noted are these: Homo sapiens, read-out: MOLT-4 (CC50 code). The gist of the method:
as §1

Series [3] has as its target T1, BCL-XL (Homo sapiens, UniProt Q07817).
T1 construct: purchased BPS Bioscience #50223
Put plainly: BCL-XL TR-FRET Assay (primary PPI inhibition). Type of series: binding. The following applies: 60 min incubation; read-out: BCLxL (IC50 code, BCL-XL TR-FRET). The gist of the method: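 TR-FRET readout (ex 340 nm; em 620/665 nm; 60 μs delay, 500 μs integration) after a 60 min incubation. Mix: compound, 10.5 ng BCL-XL, BCL-XL peptide ligand at 1:80, plus anti-His Tb donor and dye acceptor each at 1:100.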

Series [4] relates to caspase-3 and -7 activities in RS4-11 cells. As to the kind of experiment: Cas-3/7 activation (Caspase-Glo 3/7) in RS4-11 cells. Format: cell-based. The conditions noted are these: Homo sapiens, 3.5 h at 37° C. and 30 min at r.t., read-out: Cas-3/7 (EC50 code). The gist of the method: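 RS4-11 cells were exposed to graded compound concentrations for 3.5 h at 37° C/5% CO2, then 30 min at room temperature. Caspase-3/7 activity was measured by luminescence after 30 min with a DEVD luminogenic substrate reagent.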

A short description of series [5]: Cell viability assay HEK293 (CellTiter-Glo). Type of series: cell-based. The conditions noted are these: human, HEK293 cells, read-out: HEK293 (CC50 code). The gist of the method:
as §1

The target of series [6] is T2, BCL-2 (Homo sapiens, UniProt P10415).
T2 construct: purchased BPS Bioscience #50222
T2 sequence (P10415 whole entry): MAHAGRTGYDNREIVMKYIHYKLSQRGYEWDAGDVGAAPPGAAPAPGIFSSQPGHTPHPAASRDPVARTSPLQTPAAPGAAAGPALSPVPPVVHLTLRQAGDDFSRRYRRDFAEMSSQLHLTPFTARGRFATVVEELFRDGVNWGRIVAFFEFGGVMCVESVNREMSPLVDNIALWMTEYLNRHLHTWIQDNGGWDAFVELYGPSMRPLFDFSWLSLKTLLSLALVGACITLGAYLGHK
As to the kind of experiment: BCL-2 TR-FRET Assay (primary PPI inhibition). Format: binding. The following applies: 60 min incubation; read-out: BCL2 (IC50 code, BCL-2 TR-FRET). On the technique in general: Time-resolved FRET reads energy transfer from a long-lived donor to a nearby acceptor.

Where [7] appears, read: 72 h, RS4-11 cells, 3 days, CellTiter-Glo.
The mark [8] stands for this setting: 72 h, MOLT-4 cells, 3 days, CellTiter-Glo.

Like-named read-outs stand apart in the source and are kept apart here. A value given as a limit tells only on which side of the number the result lay.

T1 sequence (Q07817 whole entry): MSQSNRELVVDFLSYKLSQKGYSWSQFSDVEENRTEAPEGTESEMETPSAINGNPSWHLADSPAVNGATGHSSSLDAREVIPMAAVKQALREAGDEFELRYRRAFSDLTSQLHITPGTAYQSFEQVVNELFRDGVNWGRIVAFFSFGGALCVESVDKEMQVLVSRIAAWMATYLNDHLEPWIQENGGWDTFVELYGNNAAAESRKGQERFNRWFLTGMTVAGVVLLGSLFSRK

Regarding `O=C(NS(=O)(=O)c1ccc(NCC2CCOCC2)c([N+](=O)[O-])c1)c1ccc(N2CCN(C[C@H]3Cc4ccccc4CN3C(=O)c3ccsc3)CC2)cc1Oc1cnc2[nH]ccc2c1` [Compound 59, N-[3-nitro-4-(tetrahydropyran-4-ylmethylamino)phenyl]sulfonyl-2-(1H-pyrrolo[2,3-b]pyridin-5-yloxy)-4-[4-[[(3R)-2-(thiophene-3-carbonyl)-3,4-dihydro-1H-isoquinolin-3-yl]methyl]piperazin-1-yl]benzamide], the CC50 in series [1] (setting [7]) is above 200 nM; in series [2] (setting [8]) it was 2000 to 10000 nM. For the same compound, the IC50 in series [3] lay within 2000 to 4000 nM; in series [6], 10 to 50 nM. In addition, the EC50 in series [4] was above 250 nM. In addition, the CC50 at 3 days in series [5] is above 25000 nM.

For `O=C(NS(=O)(=O)c1ccc(NCC2CCOCC2)c([N+](=O)[O-])c1)c1ccc(N2CCC(CN3C(=O)C4(CCCC4)C3c3cncc(Cl)c3)CC2)cc1Oc1cnc2[nH]ccc2c1` (stereo not drawn) [Compound 9, 4-[4-[[1-(5-chloro-3-pyridyl)-3-oxo-2-azaspiro[3.4]octan-2-yl]methyl]-1-piperidyl]-N-[3-nitro-4-(tetrahydropyran-4-ylmethylamino)phenyl]sulfonyl-2-(1H-pyrrolo[2,3-b]pyridin-5-yloxy)benzamide], the CC50 in series [1] (RS4-11, 72 h) was above 200 nM; in series [2] (MOLT-4, 72 h), 2000 to 10000 nM. Moreover, the IC50 in series [3] was 2000 to 4000 nM; in series [6], above 50 nM. Besides, the EC50 in series [4] was above 250 nM. The CC50 at 3 days in series [5] was above 25000 nM.

`O=C(NS(=O)(=O)c1ccc(NCC2CCOCC2)c([N+](=O)[O-])c1)c1ccc(N2CCC(CN3Cc4ccccc4C4(CCC4)C3)CC2)cc1Oc1cnc2[nH]ccc2c1` [Compound 46, N-[3-nitro-4-(tetrahydropyran-4-ylmethylamino)phenyl]sulfonyl-2-(1H-pyrrolo[2,3-b]pyridin-5-yloxy)-4-[4-(spiro[1,3-dihydroisoquinoline-4,1′-cyclobutane]-2-ylmethyl)-1-piperidyl]benzamide]: the values for the CC50 in series [1] (setting [7]) and in series [2] (setting [8]) were above 200 nM and 2000 to 10000 nM, respectively. The IC50 in series [3] was above 4000 nM; in series [6], above 50 nM. Besides, in series [4], the EC50 is above 250 nM. Further, the CC50 at 3 days in series [5] was above 25000 nM.

In the case of `CN1C(=O)CC[C@H](CN2CCN(c3ccc(C(=O)NS(=O)(=O)c4ccc(NCC5CCOCC5)c([N+](=O)[O-])c4)c(Oc4cnc5[nH]ccc5c4)c3)CC2)[C@H]1c1ccc(Cl)cc1` [Compound 72, 4-[4-[[(2S,3R)-2-(4-chlorophenyl)-1-methyl-6-oxo-3-piperidyl]methyl]piperazin-1-yl]-N-[3-nitro-4-(tetrahydropyran-4-ylmethylamino)phenyl]sulfonyl-2-(1H-pyrrolo[2,3-b]pyridin-5-yloxy)benzamide], the CC50 in series [1] (setting [7]) was above 200 nM; in series [2] (setting [8]), above 10000 nM. For the same compound, the IC50 in series [3] is at most 2000 nM; in series [6], above 50 nM. Further, the EC50 in series [4] was above 250 nM. Besides, the CC50 at 3 days in series [5] was above 25000 nM.

`O=C(NS(=O)(=O)c1ccc(NCC2CCOCC2)c([N+](=O)[O-])c1)c1ccc(N2CCN(CC(c3ccccc3)c3ccc(F)c(F)c3)CC2)cc1Oc1cnc2[nH]ccc2c1` (stereo not drawn) [Compound 13, 4-[4-[2-(3,4-difluorophenyl)-2-phenyl-ethyl]piperazin-1-yl]-N-[3 nitro-4-(tetrahydropyran-4-ylmethylamino)phenyl]sulfonyl-2 (1H-pyrrolo[2,3-b]pyridin-5-yloxy)benzamide]: the CC50 is above 200 nM in series [1] (setting [7]) and below 2000 nM in series [2] (setting [8]). Also, the results for the IC50 in series [3] and in series [6] were above 4000 nM and above 50 nM, respectively. Moreover, the EC50 in series [4] is above 250 nM. For the same compound, the CC50 at 3 days in series [5] is at most 10000 nM.

`Cc1cc(Cl)ccc1C1N(CC2CCN(c3ccc(C(=O)NS(=O)(=O)c4ccc(NCC5CCOCC5)c([N+](=O)[O-])c4)c(Oc4cnc5[nH]ccc5c4)c3)CC2)C(=O)C12CCCC2` (stereo not drawn) [Compound 3, 4-[4-[[1-(4-chloro-2-methyl-phenyl)-3-oxo-2-azaspiro[3.4]octan-2-yl]methyl]-1-piperidyl]-N-[3-nitro-4-(tetrahydropyran-4-ylmethylamino)phenyl]sulfonyl-2-(1H-pyrrolo[2,3-b]pyridin-5-yloxy)benzamide]: the values for the CC50 in series [1] (setting [7]) and in series [2] (setting [8]) were above 200 nM and 2000 to 10000 nM, respectively. Further, the concentration for half-maximal inhibition (IC50) in series [3] is 2000 to 4000 nM; in series [6], 10 to 50 nM. For the same compound, the EC50 in series [4] was above 250 nM. For the same compound, the CC50 at 3 days in series [5] was above 25000 nM.

Turning to `O=C(NS(=O)(=O)c1ccc(NCC2CCOCC2)c([N+](=O)[O-])c1)c1ccc(N2CCN(C[C@@H]3Cc4ccccc4CN3C(=O)C3CCNC3)CC2)cc1Oc1cnc2[nH]ccc2c1` (stereo partly drawn) [Compound 78, N-[3-nitro-4-(tetrahydropyran-4-ylmethylamino)phenyl]sulfonyl-4-[4-[[(3S)-2-(pyrrolidine-3-carbonyl)-3,4-dihydro-1H-isoquinolin-3-yl]methyl]piperazin-1-yl]-2-(1H-pyrrolo[2,3-b]pyridin-5-yloxy)benzamide], the 50% cytotoxic concentration (CC50) is above 200 nM in series [1] (setting [7]) and above 10000 nM in series [2] (setting [8]). The values for the IC50 in series [3] and in series [6] were 2000 to 4000 nM and 5 to 10 nM, respectively. The EC50 in series [4] was above 250 nM. The CC50 at 3 days in series [5] is above 25000 nM.

Consider `O=C(NS(=O)(=O)c1ccc(NCC2CCOCC2)c([N+](=O)[O-])c1)c1ccc(N2CCN(CC3Cc4cc(Cl)ccc4CN3C(=O)C3CC3)CC2)cc1Oc1cnc2[nH]ccc2c1` (stereo not drawn) [Compound 22, 4-[4-[[6-chloro-2-(cyclopropanecarbonyl)-3,4-dihydro-1H-isoquinolin-3-yl]methyl]piperazin-1-yl]-N-[3-nitro-4-(tetrahydropyran-4-ylmethylamino)phenyl]sulfonyl-2-(1H-pyrrolo[2,3-b]pyridin-5-yloxy)benzamide], for which the CC50 in series [1] (setting [7]) is above 200 nM; in series [2] (setting [8]), 2000 to 10000 nM. Also, the IC50 was above 4000 nM in series [3] and above 50 nM in series [6]. The EC50 in series [4] is above 250 nM. For the same compound, in series [5], the CC50 at 3 days was above 25000 nM.

Consider `CC(C)C(=O)N1Cc2ccccc2C[C@H]1CN1CCN(c2ccc(C(=O)NS(=O)(=O)c3ccc(NCC4CCOCC4)c([N+](=O)[O-])c3)c(Oc3cnc4[nH]ccc4c3)c2)CC1` [Compound 8, 4-[4-[[2-(2-methylpropanoyl)-3,4-dihydro-1H-isoquinolin-3-yl]methyl]piperazin-1-yl]-N-[3-nitro-4-(tetrahydropyran-4-ylmethylamino)phenyl]sulfonyl-2-(1H-pyrrolo[2,3-b]pyridin-5-yloxy)benzamide], for which the CC50 in series [1] (setting [7]) is above 200 nM; in series [2] (setting [8]) it was 2000 to 10000 nM. Further, the IC50 in series [3] was at most 2000 nM; in series [6] it was above 50 nM. In series [4], the EC50 was above 250 nM. Further, the CC50 at 3 days in series [5] is above 25000 nM.

`CC(C)C(=O)N1Cc2ccc(F)cc2C[C@H]1CN1CCN(c2ccc(C(=O)NS(=O)(=O)c3ccc(NCC4CCOCC4)c([N+](=O)[O-])c3)c(Oc3cnc4[nH]ccc4c3)c2)CC1` [Compound 45, 4-[4-[[(3S)-6-fluoro-2-(2-methylpropanoyl)-3,4-dihydro-1H-isoquinolin-3-yl]methyl]piperazin-1-yl]-N-[3-nitro-4-(tetrahydropyran-4-ylmethylamino)phenyl]sulfonyl-2-(1H-pyrrolo[2,3-b]pyridin-5-yloxy)benzamide]: the CC50 in series [1] (setting [7]) was above 200 nM; in series [2] (setting [8]) it was above 10000 nM. Besides, the IC50 in series [3] is above 4000 nM; in series [6], above 50 nM. Moreover, the EC50 in series [4] was above 250 nM. Further, the CC50 at 3 days in series [5] was above 25000 nM.

For `O=C(NS(=O)(=O)c1ccc(NCC2CCOCC2)c([N+](=O)[O-])c1)c1ccc(N2CCN(CC(O)(c3ccccc3)c3ccc(Cl)cc3)CC2)cc1Oc1cnc2[nH]ccc2c1` (stereo not drawn) [Compound 43, 4-[4-[2-(4-chlorophenyl)-2-hydroxy-2-phenyl-ethyl]piperazin-1-yl]-N-[3-nitro-4-(tetrahydropyran-4-ylmethylamino)phenyl]sulfonyl-2-(1H-pyrrolo[2,3-b]pyridin-5-yloxy)benzamide], the CC50 is above 200 nM in series [1] (setting [7]) and 2000 to 10000 nM in series [2] (setting [8]). Moreover, the IC50 in series [3] was above 4000 nM; in series [6] it was above 50 nM. In addition, in series [4], the EC50 is above 250 nM. Besides, the CC50 at 3 days in series [5] is above 25000 nM.

With `COCCNc1ccc(S(=O)(=O)NC(=O)c2ccc(N3CCC(CN4CCCCC4c4ccc(Cl)cc4)CC3)cc2Oc2cnc3[nH]ccc3c2)cc1[N+](=O)[O-]` (stereo not drawn) [Compound 61, 4-[4-[[2-(4-chlorophenyl)-1-piperidyl]methyl]-1-piperidyl]-N-[4-(2-methoxyethylamino)-3-nitro-phenyl]sulfonyl-2-(1H-pyrrolo[2,3-b]pyridin-5-yloxy)benzamide], the CC50 in series [1] (setting [7]) lay within 100 to 200 nM; in series [2] (setting [8]), 2000 to 10000 nM. In addition, the IC50 is at most 2000 nM in series [3] and above 50 nM in series [6]. For the same compound, the EC50 in series [4] was above 250 nM. In series [5], the CC50 at 3 days is above 25000 nM.

One may read the CC50 as the concentration at which the toxic effect on the cells reaches its halfway point. As usually defined, the IC50 is the concentration at which inhibition is half-maximal.
